Assay results reported in US4970204A, “3-substituted nitro-steroid derivatives as 5-α-reductase inhibitors” (SmithKline Beecham Corporation, priority 1989, dated 1990).
Where two headings read alike, the source gives them in different places.

Target: T1, human steroid 5-α-reductase (Homo sapiens, UniProt P31213)
T1 construct: Frozen human prostates were thawed and minced into small pieces; from tissue; host or cells: hyperplastic human prostate, washed 140,000×g particulate fraction
T1 sequence (P31213 1-254): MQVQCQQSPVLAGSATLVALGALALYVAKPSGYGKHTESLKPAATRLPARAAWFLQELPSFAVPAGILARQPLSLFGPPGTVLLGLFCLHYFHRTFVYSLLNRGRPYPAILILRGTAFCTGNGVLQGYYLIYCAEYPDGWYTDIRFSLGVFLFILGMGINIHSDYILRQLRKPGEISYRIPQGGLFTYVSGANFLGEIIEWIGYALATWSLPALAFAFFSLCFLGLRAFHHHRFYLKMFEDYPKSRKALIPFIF
Experiment: inhibition of human steroid 5-α-reductase using tissue from hyperplastic human prostates
Assay type: biochemical
Protocol: The tissue was homogenized in 3 to 5 volumes of 20 mM potassium phosphate, pH 6.5, buffer containing 0.33 M sucrose, 1 mM dithiothreitol, and 50 μM NADPH with a Brinkmann Polytron (Sybron Corporation, Westbury, N.Y.).
The resulting pellet was suspended in 20 mM potassium phosphate buffer, pH 6.5, containing 20% glycerol, 1 mM dithiothreitol, and 50 μM NADPH. The suspended particulate solution was stored at -80° C.
After incubating the solution at 37° C. for 20 to 30 minutes the reaction was quenched by the addition of 4 ml ethyl acetate and 0.25 μmol each of testosterone, dihydrotestosterone, androstanediol, and androstanedione as carriers. The organic layer was removed to a second test tube and evaporated to dryness in vacuo. […] The radiochemical content in the bands of the substrate and the products was determined with a BIOSCAN Imaging Scanner (Bioscan, Inc., Washington, D.C.). The percent of recovered radiolabel converted to product was calculated, from which enzyme activity was determined. All incubations were conducted such that no more than 12% of the substrate (testosterone) was consumed.
Assuming that the steroidal inhibitor is a competitive inhibitor against testosterone, a value for the inhibition constant (Ki) can be calculated from equation 1: […]

SMILES | Ki (human prostatic particulate enzyme, [14C]-testosterone substrate, pH 5.0, 37° C., 20 to 30 minutes, Dixon plot, assuming competitive inhibition against testosterone, read-out: inhibition constant (Ki)) | Ki
CC(C)N(C(=O)[C@H]1CC[C@H]2[C@@H]3CC[C@H]4C=C([N+](=O)[O-])CC[C@]4(C)[C@H]3CC[C@]12C)C(C)C [17β-N,N-Diisopropylcarboxamide-3-nitro-5-α-androst-3-ene] | 50 nM | 
CC(C)N(C(=O)[C@H]1CC[C@H]2[C@@H]3CC[C@H]4CC([N+](=O)[O-])=CC[C@]4(C)[C@H]3CC[C@]12C)C(C)C [2-ene analogue, 17β-N,N-diisopropylcarboxamide-3-nitro-5-α-androst-2-ene] |  | 250 nM
